For one data set, the target named is T1, TPO receptor (Homo sapiens, UniProt P40238).
T1 construct: expressed in transfected cells; host or cells: murine BaF3 cells
T1 sequence (P40238 26-635): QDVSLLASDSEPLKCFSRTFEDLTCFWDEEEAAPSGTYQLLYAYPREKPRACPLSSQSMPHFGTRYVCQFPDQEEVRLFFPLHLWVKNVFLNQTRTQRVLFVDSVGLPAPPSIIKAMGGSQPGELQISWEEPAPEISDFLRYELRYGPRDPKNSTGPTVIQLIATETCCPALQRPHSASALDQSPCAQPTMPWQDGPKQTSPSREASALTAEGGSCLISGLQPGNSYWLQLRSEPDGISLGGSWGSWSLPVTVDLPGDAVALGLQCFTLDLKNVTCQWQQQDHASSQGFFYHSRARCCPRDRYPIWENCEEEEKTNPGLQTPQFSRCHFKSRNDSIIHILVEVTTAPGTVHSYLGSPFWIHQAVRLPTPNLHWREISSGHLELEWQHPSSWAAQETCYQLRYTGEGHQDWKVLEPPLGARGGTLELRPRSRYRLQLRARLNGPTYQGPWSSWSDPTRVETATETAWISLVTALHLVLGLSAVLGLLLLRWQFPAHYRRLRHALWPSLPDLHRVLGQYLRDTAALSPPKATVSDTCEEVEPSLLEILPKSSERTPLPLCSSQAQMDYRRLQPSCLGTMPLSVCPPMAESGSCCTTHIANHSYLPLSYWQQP
Kind of data set: Luciferase assay in TPO-responsive BaF3 cell line. It counts as cell-based. The conditions noted are these: TPO-responsive murine BaF3 cells. How it is done:
Compounds of the present invention were tested for potency as mimetics of the TPO receptor in a Luciferase assay such as described in Lamb, et al., Nucleic Acids Research 23: 3283-3289 (1995) and Seidel, et al., Proc. Natl. Acad. Sci. USA 92: 3041-3045 (1995) by substituting a TPO-responsive BaF3 cell line (Vigon et a). Proc. Natl. Acad. Sci. USA 1992, 89, 5640-5644) for the HepG2 cells utilized therein. The murine BaF3 cells express TPO receptors and closely match the pattern of STAT (signal transducers and activators of transcription) activation observed in primary murine and human bone marrow cells.

Consider 3 compounds from patent US6642265B1, “Thrombopoietin mimetics” (SmithKline Beecham Corporation, priority 2002, dated 2003).

The structures appear in SMILES notation.

On to `Cc1ccc(-n2nc(C)c(N=Nc3cc(Cl)cc(S(=O)(=O)O)c3O)c2O)cc1C` [Example 11, 5-Chloro-3-{[1-(3,4-dimethylphenyl)-5-hydroxy-3-methyl-1H-pyrazol-4-yl]azo}-2-hydroxybenzenesulfonic Acid], for which the melting point was 240 °C (dec.). `Cc1ccc(-n2nc(C)c(N=Nc3ccc(C(=O)O)cc3O)c2O)cc1C` [Example 6, 4-{[1-(3,4-Dimethylphenyl)-5-hydroxy-3-methyl-1H-pyrazol-4-yl]azo}-3-hydroxybenzoic Acid] displayed a concentration giving a half-maximal response (EC50) on TPO receptor of 1800 nM. On TPO receptor (efficacy printed with the EC50), the “activity relative to TPO in the luciferase assay” value is reported as 50 % TPO. On to `Cc1nn(-c2ccc(OCc3ccccc3)cc2)c(O)c1N=Nc1ccc(C(=O)O)cc1O` [Example 3, 4-{[1-(4-Benzyloxyphenyl)-5-hydroxy-3-methyl-1H-pyrazol-4-yl]azo}-3-hydroxybenzoic Acid], for which the melting point is 258 to 260 °C (dec.).

A word on the melting point: it is the temperature of the solid-liquid transition. The EC50 is the concentration at which the effect is half-maximal. High values mean a need for much substance, low ones an effect from little substance.
